Values after ≈ are worked out from the molar mass of the structure shown. Where two headings read alike, the source gives them in different places.
Columns and labels:
Assay in all cases: MIC by broth dilution
Assay type in all cases: cell-based
Candida albicans GC 3066 = conditions: GC3066, 18 h
Procedure: (§1) The minimum inhibitory concentration (MIC), the lowest concentration of the antibiotic which inhibits growth of the test organism, is determined by the broth dilution method using Muller-Hinton II […] (Baltimore Biological Laboratories) following the recommendations of the National Committee for Clinical Laboratory Standards [Methods for dilution antimicrobial susceptibility tests for bacteria that grow aerobically. Approved standard M7-A2. National Committee for Clinical Laboratory Standards, Villanova, Pa].
(§2) An inoculum level of 5×10^5 CFU/ml, and a range of antibiotic concentrations (64–0.06 μg/ml) is used. The MIC is determined after the microtiter plates are incubated for 18 hours at 35° C. in an ambient air incubator. The test organisms comprise a spectrum of the Gram-positive bacteria Staphylococcus aureus, Streptococcus pneumoniae, and Enterococcus sp., the Gram-negative bacteria Escherichia coli, and the yeast Candida albicans. These organisms include recent clinical isolates that are resistant to methicillin and vancomycin. MIC data of Cyan-416 A–E are listed in Table 1 and MIC data of ester derivatives of Cyan-416 B (Formula I) are listed in Table 2.

[1] = tested on: Enterococcus faecalis GC 2242
Procedure: as §1, §2

[2] = tested on: Enterococcus faecalis GC 4555
Procedure: as §1, §2

[3] = tested on: Enterococcus faecalis GC 6189; conditions: GC6189, Table 2, 18 hours at 35° C.
Procedure: as §1, §2

[4] = tested on: Enterococcus faecalis GC 842; conditions: GC842, Table 1, 18 hours at 35° C.
Procedure: as §1, §2

[5] = tested on: Enterococcus faecium 4558; conditions: Table 2, 18 hours at 35° C.
Procedure: as §1, §2

[6] = tested on: Enterococcus faecium GC 2243; conditions: GC2243, Table 2, 18 hours at 35° C.
Procedure: as §1, §2

[7] = tested on: Enterococcus faecium GC 4556; conditions: GC4556, Table 2, 18 hours at 35° C.
Procedure: as §1, §2

Escherichia coli GC 2203 = conditions: GC2203, 18 h
Procedure: as §1, §2

[8] = tested on: Escherichia coli GC 4560 (imp)
Procedure: as §1, §2

[9] = tested on: Staphylococcus aureus GC 1131
Procedure: as §1, §2

[10] = tested on: Staphylococcus aureus GC 2216
Procedure: as §1, §2

[11] = tested on: Staphylococcus aureus GC 4536; conditions: GC4536, Table 1, 18 hours at 35° C.
Procedure: as §1, §2

[12] = tested on: Staphylococcus aureus GC 4541; conditions: GC4541, Table 2, 18 hours at 35° C.
Procedure: as §1, §2

[13] = tested on: Staphylococcus aureus GC 4543; conditions: GC4543, Table 2, 18 hours at 35° C.
Procedure: as §1, §2

[14] = tested on: Staphylococcus haemolyticus GC 4547; conditions: GC4547, Table 2, 18 hours at 35° C.
Procedure: as §1, §2

[15] = tested on: Streptococcus pneumoniae GC 1894; conditions: GC1894, Table 2, 18 hours at 35° C.
Procedure: as §1, §2

[16] = tested on: Streptococcus pneumoniae GC 6242; conditions: GC6242, Table 2, 18 hours at 35° C.
Procedure: as §1, §2

[17] = tested on: Pseudomonas aeruginosa GC 2214; conditions: GC2214, Table 1, 18 hours at 35° C.
[18] = GC2242, Table 1, 18 hours at 35° C., read-out: MIC
[19] = GC4555, Table 1, 18 hours at 35° C., read-out: MIC
[20] = Table 1, Escherichia coli GC 2203, 18 hours at 35° C.
[21] = Table 2, Escherichia coli coli GC 2203, 18 hours at 35° C.
[22] = GC1131, Table 1, 18 hours at 35° C., read-out: MIC
[23] = GC2216, Table 1, 18 hours at 35° C., read-out: MIC
[24] = GC2242, Table 2, 18 hours at 35° C., read-out: MIC
[25] = GC4555, Table 2, 18 hours at 35° C., read-out: MIC
[26] = GC1131, Table 2, 18 hours at 35° C., read-out: MIC
[27] = GC2216, Table 2, 18 hours at 35° C., read-out: MIC

| SMILES | MIC (Candida albicans GC 3066; Table 1, 18 hours at 35° C.) [µg/mL] | MIC (Candida albicans GC 3066; Table 2, 18 hours at 35° C.) [µg/mL] | MIC [1, 18] [µg/mL] | MIC [2, 19] [µg/mL] | MIC [3] [µg/mL] | MIC [4] [µg/mL] | MIC [5] [µg/mL] | MIC [6] [µg/mL] | MIC [7] [µg/mL] | MIC (Escherichia coli GC 2203; [20]) [µg/mL] | MIC (Escherichia coli GC 2203; [21]) [µg/mL] | MIC ([8]; Escherichia coli, 18 h) [µg/mL] | MIC [9, 22] [µg/mL] | MIC [10, 23] [µg/mL] | MIC [11] [µg/mL] | MIC [12] [µg/mL] | MIC [13] [µg/mL] | MIC [14] [µg/mL] | MIC [15] [µg/mL] | MIC [16] [µg/mL] | other results |
| --- | --- | --- | --- | --- | --- | --- | --- | --- | --- | --- | --- | --- | --- | --- | --- | --- | --- | --- | --- | --- | --- |
| COC(=O)c1c(O)ccc(O)c1C(=O)c1c(O)cc2c(c1O)[C@@H]1C=C[C@]3(C2)C(=C(O)c2c(O)cc(C)cc2[C@@H]3OC(C)=O)C1=O [Example 3a, Cyan-416 A] | > 64 | > 128 | 16 (≈ 26 µM) | 16 (≈ 26 µM) | 16 (≈ 26 µM) | 16 (≈ 26 µM) | 8 (≈ 13 µM) | 8 (≈ 13 µM) | 16 (≈ 26 µM) | > 64 | > 128 | 32 (≈ 52.1 µM) | 8 (≈ 13 µM) | 8 (≈ 13 µM) | 8 (≈ 13 µM) | 16 (≈ 26 µM) | 8 (≈ 13 µM) | 16 (≈ 26 µM) | 8 (≈ 13 µM) | 8 (≈ 13 µM) | MIC ([1]; Table 2, 18 hours at 35° C.): 16 µg/mL (≈ 26 µM); MIC ([2]; Table 2, 18 hours at 35° C.): 16 µg/mL (≈ 26 µM); MIC ([8]; Table 2, Escherichia coli GC 4560 (imp), 18 hours at 35° C.): 32 µg/mL (≈ 52.1 µM); MIC ([9]; Table 2, 18 hours at 35° C.): 8 µg/mL (≈ 13 µM); MIC ([10]; Table 2, 18 hours at 35° C.): 8 µg/mL (≈ 13 µM); MIC [17]: > 64 µg/mL |
| COC(=O)c1c(O)ccc(O)c1C(=O)c1c(O)cc2c(c1O)[C@@H]1C=C[C@]3(C2)C(=C(O)c2c(O)cc(C)cc2[C@@H]3O)C1=O [Example 3b, Cyan-416 B] | > 64 | – | 32 (≈ 55.9 µM) | 64 (≈ 112 µM) | – | 64 (≈ 112 µM) | – | – | – | > 64 | – | 64 (≈ 112 µM) | 32 (≈ 55.9 µM) | 32 (≈ 55.9 µM) | 32 (≈ 55.9 µM) | – | – | – | – | – | MIC [17]: > 64 µg/mL |
| COC(=O)c1c(O)ccc(O)c1C(=O)c1c(O)cc2c(c1O)[C@@H]1C=C[C@@]3(C2)[C@@H](OC(C)=O)c2cc(C)cc(O)c2C(=O)C3(O)C1=O (stereo partly shown) [Example 3c, Cyan-416 C] | > 64 | – | 32 (≈ 50.7 µM) | 64 (≈ 101 µM) | – | 32 (≈ 50.7 µM) | – | – | – | > 64 | – | > 64 | 32 (≈ 50.7 µM) | 32 (≈ 50.7 µM) | 32 (≈ 50.7 µM) | – | – | – | – | – | MIC [17]: > 64 µg/mL |
| COC(=O)c1c(O)ccc(O)c1C(=O)c1c(O)cc(C)cc1O [Example 4a, Cyan-416 D] | > 64 | – | 32 (≈ 101 µM) | 64 (≈ 201 µM) | – | 64 (≈ 201 µM) | – | – | – | > 64 | – | 64 (≈ 201 µM) | 64 (≈ 201 µM) | 64 (≈ 201 µM) | 64 (≈ 201 µM) | – | – | – | – | – | MIC [17]: > 64 µg/mL |
| COC(=O)c1c(O)ccc(O)c1C(=O)c1c(O)cc(C)c(Cc2c(C)cc(O)c(C(=O)c3c(O)ccc(O)c3C(=O)OC)c2O)c1O [Example 4b, Cyan-416 E] | 64 (≈ 98.7 µM) | – | 64 (≈ 98.7 µM) | 64 (≈ 98.7 µM) | – | 64 (≈ 98.7 µM) | – | – | – | > 64 | – | 64 (≈ 98.7 µM) | 64 (≈ 98.7 µM) | 64 (≈ 98.7 µM) | 64 (≈ 98.7 µM) | – | – | – | – | – | MIC [17]: 64 µg/mL (≈ 98.7 µM) |
| CCCC(=O)O[C@H]1c2cc(C)cc(O)c2C(O)=C2C(=O)[C@H]3C=C[C@]21Cc1cc(O)c(C(=O)c2c(O)ccc(O)c2C(=O)OC)c(O)c13 [Example 6, Cyan-416 B butyrate] | – | > 128 | – | – | 16 (≈ 24.9 µM) | – | 8 (≈ 12.4 µM) | 16 (≈ 24.9 µM) | 8 (≈ 12.4 µM) | – | > 128 | 16 (≈ 24.9 µM) | – | – | – | 8 (≈ 12.4 µM) | 8 (≈ 12.4 µM) | 16 (≈ 24.9 µM) | 16 (≈ 24.9 µM) | 32 (≈ 49.8 µM) | MIC [1, 24]: 8 µg/mL (≈ 12.4 µM); MIC [2, 25]: 16 µg/mL (≈ 24.9 µM); MIC [9, 26]: 8 µg/mL (≈ 12.4 µM); MIC [10, 27]: 8 µg/mL (≈ 12.4 µM) |
| COC(=O)c1c(O)ccc(O)c1C(=O)c1c(O)cc2c(c1O)[C@@H]1C=C[C@]3(C2)C(=C(O)c2c(O)cc(C)cc2[C@@H]3OC(=O)C(C)C)C1=O [Example 7, Cyan-416 B isobutyrate] | – | > 128 | – | – | 4 (≈ 6.22 µM) | – | 2 (≈ 3.11 µM) | 8 (≈ 12.4 µM) | 4 (≈ 6.22 µM) | – | > 128 | 8 (≈ 12.4 µM) | – | – | – | 2 (≈ 3.11 µM) | 4 (≈ 6.22 µM) | 4 (≈ 6.22 µM) | 8 (≈ 12.4 µM) | 16 (≈ 24.9 µM) | MIC [1, 24]: 4 µg/mL (≈ 6.22 µM); MIC [2, 25]: 4 µg/mL (≈ 6.22 µM); MIC [9, 26]: 4 µg/mL (≈ 6.22 µM); MIC [10, 27]: 4 µg/mL (≈ 6.22 µM) |
| CCCCC(=O)O[C@H]1c2cc(C)cc(O)c2C(O)=C2C(=O)[C@H]3C=C[C@]21Cc1cc(O)c(C(=O)c2c(O)ccc(O)c2C(=O)OC)c(O)c13 [Example 8, Cyan-416 B pentanoate] | – | > 128 | – | – | 4 (≈ 6.09 µM) | – | 2 (≈ 3.05 µM) | 4 (≈ 6.09 µM) | 4 (≈ 6.09 µM) | – | > 128 | 8 (≈ 12.2 µM) | – | – | – | 4 (≈ 6.09 µM) | 4 (≈ 6.09 µM) | 4 (≈ 6.09 µM) | 8 (≈ 12.2 µM) | 8 (≈ 12.2 µM) | MIC [1, 24]: 4 µg/mL (≈ 6.09 µM); MIC [2, 25]: 4 µg/mL (≈ 6.09 µM); MIC [9, 26]: 4 µg/mL (≈ 6.09 µM); MIC [10, 27]: 4 µg/mL (≈ 6.09 µM) |
| CCCCCC(=O)O[C@H]1c2cc(C)cc(O)c2C(O)=C2C(=O)[C@H]3C=C[C@]21Cc1cc(O)c(C(=O)c2c(O)ccc(O)c2C(=O)OC)c(O)c13 [Example 9, Cyan-416 B hexanoate] | – | > 128 | – | – | 4 (≈ 5.96 µM) | – | 2 (≈ 2.98 µM) | 4 (≈ 5.96 µM) | 4 (≈ 5.96 µM) | – | > 128 | 8 (≈ 11.9 µM) | – | – | – | 4 (≈ 5.96 µM) | 4 (≈ 5.96 µM) | 4 (≈ 5.96 µM) | 8 (≈ 11.9 µM) | 8 (≈ 11.9 µM) | MIC [1, 24]: 4 µg/mL (≈ 5.96 µM); MIC [2, 25]: 4 µg/mL (≈ 5.96 µM); MIC [9, 26]: 4 µg/mL (≈ 5.96 µM); MIC [10, 27]: 4 µg/mL (≈ 5.96 µM) |

From US7078556B2, “Antibiotics Cyan-416 A, Cyan-416 B, Cyan-416 C, Cyan-416 D and Cyan-416 E, and ester derivatives of Cyan-416 B” (Wyeth Holdings Corporation, priority 2002, dated 2006)
